From ChEMBL document CHEMBL1201862, “PubChem BioAssay data set” (2004)
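Cultured in 96-well plates, cells were exposed to test compound for 48 hours across five concentrations. The concentration for 50% growth inhibition is given as GI50.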 The source made the active and inactive calls. Cut-off read from the data, not from the text of the source: active = GI50 up to about 1.1 µM and inactive = higher.

Experiments:
Assay in all cases: NCI-60 cell line screen, 48 h
786-0 = tested on: 786-0
SNB-19 = tested on: SNB-19
OVCAR-8 = tested on: OVCAR-8
HOP-92 = tested on: HOP-92
CCRF-CEM = tested on: CCRF-CEM
HCT-116 = tested on: HCT-116
UACC-257 = tested on: UACC-257
MCF7 = tested on: MCF7
NCI/ADR-RES = tested on: NCI/ADR-RES
SW-620 = tested on: SW-620
OVCAR-3 = tested on: OVCAR-3
CAKI-1 = tested on: CAKI-1
EKVX = tested on: EKVX
LOX IMVI = tested on: LOX IMVI
HCC 2998 = tested on: HCC 2998
OVCAR-5 = tested on: OVCAR-5
UO-31 = tested on: UO-31
Malme-3M = tested on: Malme-3M
COLO 205 = tested on: COLO 205
SK-MEL-5 = tested on: SK-MEL-5
SNB-75 = tested on: SNB-75
RXF 393 = tested on: RXF 393
ACHN = tested on: ACHN
HCT-15 = tested on: HCT-15
MOLT-4 = tested on: MOLT-4
K562 = tested on: K562
SR = tested on: SR
A549 = tested on: A549
A498 = tested on: A498
HOP-62 = tested on: HOP-62
T47D = tested on: T47D
MDA-MB-435 = tested on: MDA-MB-435
U-251 = tested on: U-251
SK-MEL-28 = tested on: SK-MEL-28
MDA-MB-231 = tested on: MDA-MB-231
SF-268 = tested on: SF-268
NCI-H460 = tested on: NCI-H460
SF-295 = tested on: SF-295
DU-145 = tested on: DU-145
SK-MEL-2 = tested on: SK-MEL-2
MDA-N = tested on: MDA-N
OVCAR-4 = tested on: OVCAR-4
SN12C = tested on: SN12C
SK-OV-3 = tested on: SK-OV-3
NCI-H23 = tested on: NCI-H23
M14 = tested on: M14
Hs-578T = tested on: Hs-578T
NCI-H226 = tested on: NCI-H226
RPMI-8226 = tested on: RPMI-8226
PC-3 = tested on: PC-3
KM12 = tested on: KM12
UACC-62 = tested on: UACC-62
IGROV-1 = tested on: IGROV-1
TK-10 = tested on: TK-10
HT-29 = tested on: HT-29
BT-549 = tested on: BT-549
NCI-H522 = tested on: NCI-H522
HL-60 = tested on: HL-60
SF-539 = tested on: SF-539

C/C(=C\C(=O)O)C(=O)N(C)c1ccccc1I
GI50 (786-0): > 100 µM (inactive) | GI50 (SNB-19): > 100 µM (inactive) | GI50 (OVCAR-8): > 100 µM (inactive) | GI50 (HOP-92): > 100 µM (inactive) | GI50 (CCRF-CEM): > 100 µM (inactive) | GI50 (HCT-116): > 100 µM (inactive) | GI50 (UACC-257): > 100 µM (inactive) | GI50 (MCF7): > 100 µM (inactive) | GI50 (NCI/ADR-RES): > 100 µM (inactive) | GI50 (SW-620): > 100 µM (inactive) | GI50 (OVCAR-3): > 100 µM (inactive) | GI50 (CAKI-1): > 100 µM (inactive) | GI50 (EKVX): > 100 µM (inactive) | GI50 (LOX IMVI): > 100 µM (inactive) | GI50 (HCC 2998): > 100 µM (inactive) | GI50 (OVCAR-5): > 100 µM (inactive) | GI50 (UO-31): > 100 µM (inactive) | GI50 (Malme-3M): > 100 µM (inactive) | GI50 (COLO 205): > 100 µM (inactive) | GI50 (SK-MEL-5): > 100 µM (inactive) | GI50 (SNB-75): > 100 µM (inactive) | GI50 (RXF 393): > 100 µM (inactive) | GI50 (ACHN): > 100 µM (inactive) | GI50 (HCT-15): > 100 µM | GI50 (MOLT-4): > 100 µM (inactive) | GI50 (K562): > 100 µM (inactive) | GI50 (SR): > 100 µM (inactive) | GI50 (A549): > 100 µM (inactive) | GI50 (A498): > 100 µM (inactive) | GI50 (HOP-62): > 100 µM (inactive) | GI50 (T47D): > 100 µM (inactive) | GI50 (MDA-MB-435): > 100 µM (inactive) | GI50 (U-251): > 100 µM (inactive) | GI50 (SK-MEL-28): > 100 µM (inactive) | GI50 (MDA-MB-231): > 100 µM (inactive) | GI50 (SF-268): > 100 µM (inactive) | GI50 (NCI-H460): > 100 µM (inactive) | GI50 (SF-295): > 100 µM (inactive) | GI50 (DU-145): > 100 µM (inactive) | GI50 (SK-MEL-2): > 100 µM (inactive) | GI50 (MDA-N): > 100 µM (inactive) | GI50 (OVCAR-4): > 100 µM (inactive) | GI50 (SN12C): > 100 µM (inactive) | GI50 (SK-OV-3): > 100 µM (inactive) | GI50 (NCI-H23): > 100 µM (inactive) | GI50 (M14): > 100 µM (inactive) | GI50 (Hs-578T): > 100 µM (inactive) | GI50 (NCI-H226): > 100 µM (inactive) | GI50 (RPMI-8226): > 100 µM (inactive) | GI50 (PC-3): > 100 µM (inactive) | GI50 (KM12): > 100 µM (inactive) | GI50 (UACC-62): > 100 µM (inactive)

CCCCCCCCCCCCCCCCOCC(CC(F)(F)P(=O)(OCC)OCC)OC(C)=O (centres undefined)
GI50 (786-0): 10.8 µM (inactive) | GI50 (SNB-19): 3.21 µM (inactive) | GI50 (HOP-92): 10.3 µM (inactive) | GI50 (HCT-116): 3.17 µM (inactive) | GI50 (UACC-257): 17.5 µM (inactive) | GI50 (MCF7): 15.8 µM (inactive) | GI50 (NCI/ADR-RES): 16.3 µM (inactive) | GI50 (SW-620): 14.8 µM (inactive) | GI50 (OVCAR-3): 17.5 µM (inactive) | GI50 (CAKI-1): 16.6 µM (inactive) | GI50 (EKVX): 21.7 µM (inactive) | GI50 (HCC 2998): 8.69 µM (inactive) | GI50 (OVCAR-5): 18.3 µM (inactive) | GI50 (UO-31): 16 µM (inactive) | GI50 (Malme-3M): 10.6 µM (inactive) | GI50 (COLO 205): 18.2 µM (inactive) | GI50 (SK-MEL-5): 21.1 µM (inactive) | GI50 (IGROV-1): 8.49 µM (inactive) | GI50 (TK-10): 14 µM (inactive) | GI50 (SNB-75): 17.5 µM (inactive) | GI50 (RXF 393): 23.8 µM (inactive) | GI50 (ACHN): 13.9 µM (inactive) | GI50 (HCT-15): 5.94 µM | GI50 (MOLT-4): 28.1 µM (inactive) | GI50 (K562): 14.1 µM (inactive) | GI50 (A549): 12 µM (inactive) | GI50 (A498): 12.5 µM (inactive) | GI50 (MDA-MB-435): 18.6 µM (inactive) | GI50 (U-251): 2.72 µM (inactive) | GI50 (SK-MEL-28): 17.8 µM (inactive) | GI50 (MDA-MB-231): 14.9 µM (inactive) | GI50 (SF-268): 12.6 µM (inactive) | GI50 (HT-29): 14.9 µM (inactive) | GI50 (NCI-H460): 10.7 µM (inactive) | GI50 (SF-295): 11.6 µM (inactive) | GI50 (BT-549): 15.2 µM (inactive) | GI50 (DU-145): 15.4 µM (inactive) | GI50 (SK-MEL-2): 19.6 µM (inactive) | GI50 (MDA-N): 16.9 µM (inactive) | GI50 (OVCAR-4): 14.9 µM (inactive) | GI50 (SN12C): 19.7 µM (inactive) | GI50 (SK-OV-3): 19.6 µM (inactive) | GI50 (NCI-H23): 16.9 µM (inactive) | GI50 (M14): 17.9 µM (inactive) | GI50 (NCI-H226): 14.4 µM (inactive) | GI50 (RPMI-8226): 25.1 µM (inactive) | GI50 (NCI-H522): 13.1 µM (inactive) | GI50 (PC-3): 13.8 µM (inactive) | GI50 (KM12): 11.6 µM (inactive) | GI50 (UACC-62): 15.3 µM (inactive)

c1csc(-c2nnc(C34CC5CC(CC(C5)C3)C4)o2)c1
GI50 (786-0): 24.7 µM (inactive) | GI50 (SNB-19): 51.6 µM (inactive) | GI50 (OVCAR-8): 37.6 µM (inactive) | GI50 (HOP-92): 29.1 µM (inactive) | GI50 (CCRF-CEM): 21.7 µM (inactive) | GI50 (HCT-116): 32.2 µM (inactive) | GI50 (MCF7): < 0.01 µM (active) | GI50 (NCI/ADR-RES): 21.7 µM (inactive) | GI50 (SW-620): 45.8 µM (inactive) | GI50 (OVCAR-3): 13.6 µM (inactive) | GI50 (CAKI-1): 87.1 µM (inactive) | GI50 (EKVX): 44.1 µM (inactive) | GI50 (LOX IMVI): 23.6 µM (inactive) | GI50 (HCC 2998): 35.4 µM (inactive) | GI50 (OVCAR-5): 32.4 µM (inactive) | GI50 (UO-31): 3.96 µM (inactive) | GI50 (Malme-3M): 16.4 µM (inactive) | GI50 (COLO 205): 17.5 µM (inactive) | GI50 (SK-MEL-5): 17.1 µM (inactive) | GI50 (IGROV-1): 31.9 µM (inactive) | GI50 (TK-10): 47.4 µM (inactive) | GI50 (SNB-75): 32.5 µM (inactive) | GI50 (RXF 393): 23.3 µM (inactive) | GI50 (ACHN): 33.3 µM (inactive) | GI50 (HCT-15): 38.1 µM | GI50 (MOLT-4): 24.7 µM (inactive) | GI50 (K562): 34 µM (inactive) | GI50 (SR): 27.7 µM (inactive) | GI50 (A549): 39.4 µM (inactive) | GI50 (A498): 16.9 µM (inactive) | GI50 (HOP-62): 29.4 µM (inactive) | GI50 (T47D): 26.9 µM (inactive) | GI50 (MDA-MB-435): 36.5 µM (inactive) | GI50 (U-251): 39.6 µM (inactive) | GI50 (SK-MEL-28): 40.6 µM (inactive) | GI50 (MDA-MB-231): 17.7 µM (inactive) | GI50 (SF-268): 46.5 µM (inactive) | GI50 (HL-60): 15.1 µM (inactive) | GI50 (HT-29): 19 µM (inactive) | GI50 (NCI-H460): 39.9 µM (inactive) | GI50 (SF-295): 42.1 µM (inactive) | GI50 (DU-145): 44.2 µM (inactive) | GI50 (SK-MEL-2): 24.5 µM (inactive) | GI50 (MDA-N): 37.7 µM (inactive) | GI50 (OVCAR-4): 34.2 µM (inactive) | GI50 (SN12C): 38 µM (inactive) | GI50 (SK-OV-3): 53.1 µM (inactive) | GI50 (NCI-H23): 42.7 µM (inactive) | GI50 (M14): 37.2 µM (inactive) | GI50 (Hs-578T): 31.6 µM (inactive) | GI50 (NCI-H226): 29.9 µM (inactive) | GI50 (RPMI-8226): 36.2 µM (inactive) | GI50 (NCI-H522): 36.8 µM (inactive) | GI50 (PC-3): 28 µM (inactive) | GI50 (SF-539): 19 µM (inactive) | GI50 (KM12): 52 µM (inactive) | GI50 (UACC-62): 36.2 µM (inactive)
